Results reported in US9556199B2, “Thieno[3,2-d]pyrimidines derivatives for the treatment of viral infections” (Janssen Sciences Ireland UC, priority 2013, dated 2017).

Columns and labels:
Assay type in all cases: cell-based
human TLR7 = target: T1, human TLR7 (Homo sapiens, UniProt Q9NYK1); experiment: TLR7 cellular NFκB-luc reporter assay in transiently transfected HEK293 cells; settings: lowest effective concentration, 6 hours incubation
T1 construct: expressed in transfected cells; host or cells: HEK293
T1 sequence (Q9NYK1 27-1049): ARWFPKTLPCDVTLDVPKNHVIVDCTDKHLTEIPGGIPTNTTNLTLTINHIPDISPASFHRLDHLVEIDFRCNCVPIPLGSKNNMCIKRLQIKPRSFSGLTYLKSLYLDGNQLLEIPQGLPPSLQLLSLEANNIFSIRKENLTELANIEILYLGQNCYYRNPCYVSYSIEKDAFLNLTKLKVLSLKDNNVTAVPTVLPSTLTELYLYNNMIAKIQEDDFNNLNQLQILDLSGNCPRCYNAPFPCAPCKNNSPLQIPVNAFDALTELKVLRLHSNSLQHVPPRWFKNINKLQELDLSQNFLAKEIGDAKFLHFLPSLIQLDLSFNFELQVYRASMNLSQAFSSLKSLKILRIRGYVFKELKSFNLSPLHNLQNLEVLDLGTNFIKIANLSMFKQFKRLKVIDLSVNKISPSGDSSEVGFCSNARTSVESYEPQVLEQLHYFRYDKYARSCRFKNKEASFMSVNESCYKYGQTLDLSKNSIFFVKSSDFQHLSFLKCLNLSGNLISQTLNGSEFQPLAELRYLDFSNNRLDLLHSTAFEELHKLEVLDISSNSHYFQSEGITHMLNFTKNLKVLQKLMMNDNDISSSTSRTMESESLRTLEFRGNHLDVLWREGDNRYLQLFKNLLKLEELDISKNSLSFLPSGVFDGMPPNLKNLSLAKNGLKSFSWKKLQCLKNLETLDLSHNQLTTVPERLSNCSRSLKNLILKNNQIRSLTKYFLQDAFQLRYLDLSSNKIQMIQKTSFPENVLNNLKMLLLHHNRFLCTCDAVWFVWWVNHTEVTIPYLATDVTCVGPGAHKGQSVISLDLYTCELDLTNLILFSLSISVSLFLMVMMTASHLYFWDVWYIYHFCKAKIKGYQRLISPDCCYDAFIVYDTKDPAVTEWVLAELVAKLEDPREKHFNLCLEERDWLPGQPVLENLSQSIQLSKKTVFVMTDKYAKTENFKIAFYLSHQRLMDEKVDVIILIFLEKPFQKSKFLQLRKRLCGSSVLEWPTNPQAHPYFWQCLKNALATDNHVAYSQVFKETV
Procedure: (§1) The ability of compounds to activate human TLR7 and/or TLR8 was assessed in a cellular reporter assay using HEK293 cells transiently transfected with a TLR7 or TLR8 expression vector and NFκB-luc reporter construct.
(§2) Briefly, HEK293 cells were grown in culture medium (DMEM supplemented with 10% FCS and 2 mM Glutamine). For transfection of cells in 15 cm dishes, cells were detached with Trypsin-EDTA, transfected with a mix of CMV-TLR7 or TLR8 plasmid (1700 ng), NFκB-luc plasmid (850 ng) and a transfection reagent and incubated for 48 h at 37° C. in a humidified 5% CO2 atmosphere. Transfected cells were then washed in PBS, detached with Trypsin-EDTA and resuspended in medium to a density of 1.25×10^5 cells/mL. Forty microliters of cells were then dispensed into each well in 384-well plates, where 200 nL of compound in 100% DMSO was already present. Following 6 hours incubation at 37° C., 5% CO2, the luciferase activity was determined by adding 15 μL of Steady Lite Plus substrate (Perkin Elmer) to each well and readout performed on a ViewLux ultraHTS microplate imager (Perkin Elmer). Dose response curves were generated from measurements performed in quadruplicates. Lowest effective concentrations (LEC) values, defined as the concentration that induces an effect which is at least two fold above the standard deviation of the assay, were determined for each compound.

human TLR8 = target: T2, human TLR8 (Homo sapiens, UniProt Q9NR97); experiment: TLR8 cellular NFκB-luc reporter assay in transiently transfected HEK293 cells; settings: lowest effective concentration, 6 hours incubation
T2 construct: expressed in transfected cells; host or cells: HEK293
T2 sequence (Q9NR97 27-1041): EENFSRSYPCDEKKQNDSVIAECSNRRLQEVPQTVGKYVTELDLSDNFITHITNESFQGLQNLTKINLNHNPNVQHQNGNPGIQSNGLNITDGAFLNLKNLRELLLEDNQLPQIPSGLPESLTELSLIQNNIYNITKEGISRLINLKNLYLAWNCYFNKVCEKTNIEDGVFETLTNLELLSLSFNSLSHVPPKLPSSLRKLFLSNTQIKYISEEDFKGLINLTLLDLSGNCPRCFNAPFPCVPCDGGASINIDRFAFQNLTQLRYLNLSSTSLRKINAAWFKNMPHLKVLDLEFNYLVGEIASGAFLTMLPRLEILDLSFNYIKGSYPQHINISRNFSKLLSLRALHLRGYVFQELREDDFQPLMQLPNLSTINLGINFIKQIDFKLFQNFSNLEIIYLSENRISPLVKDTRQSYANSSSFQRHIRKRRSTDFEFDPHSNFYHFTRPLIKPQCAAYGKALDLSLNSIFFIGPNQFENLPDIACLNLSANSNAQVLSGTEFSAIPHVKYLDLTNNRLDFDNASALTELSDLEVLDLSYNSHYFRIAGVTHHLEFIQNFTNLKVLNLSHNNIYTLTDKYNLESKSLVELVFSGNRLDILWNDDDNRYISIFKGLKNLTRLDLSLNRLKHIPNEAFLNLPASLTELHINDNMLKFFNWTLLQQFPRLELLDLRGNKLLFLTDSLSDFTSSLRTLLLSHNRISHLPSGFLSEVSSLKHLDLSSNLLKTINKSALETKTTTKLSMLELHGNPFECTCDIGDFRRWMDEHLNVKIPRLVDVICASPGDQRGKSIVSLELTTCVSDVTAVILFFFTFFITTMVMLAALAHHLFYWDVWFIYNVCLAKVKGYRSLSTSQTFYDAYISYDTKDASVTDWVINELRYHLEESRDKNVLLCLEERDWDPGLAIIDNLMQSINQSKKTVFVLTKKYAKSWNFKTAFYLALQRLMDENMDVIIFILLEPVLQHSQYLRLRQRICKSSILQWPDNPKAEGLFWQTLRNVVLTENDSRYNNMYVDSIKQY
Procedure: as §1, §2

[1] = test system: interferon-stimulated responsive elements (ISRE); experiment: Activation of ISRE promoter elements in HEK-ISREluc cells by conditioned media from compound-treated PBMC; settings: lowest effective concentration applied to PBMCs, supernatant transferred to HEK-ISREluc cells, 24 hours, read-out: HEK-ISRE luc (LEC)
Procedure: The potential of compounds to induce IFN-I was also evaluated by measuring the activation of interferon-stimulated responsive elements (ISRE) by conditioned media from PBMC. The ISRE element of sequence GAAACTGAAACT (SEQ ID NO: 1) is highly responsive to the STAT1-STAT2-IRF9 transcription factor, activated upon binding of IFN-I to their receptor IFNAR (Clontech, PT3372-5W). The plasmid pISRE-Luc from Clontech (ref. 631913) contains 5 copies of this ISRE element, followed by the firefly luciferase ORF. A HEK293 cell line stably transfected with pISRE-Luc (HEK-ISREluc) was established to profile the conditioned PBMC cell culture media.
Briefly, PBMCs were prepared from buffy coats of at least two donors using a standard Ficoll centrifugation protocol. Isolated PBMCs were resuspended in RPMI medium supplemented with 10% human AB serum and 2×10^5 cells/well were dispensed into 384-well plates containing compounds (70 μL total volume). After overnight incubation, 10 μL of supernatant was transferred to 384-well plates containing 5×10^3 HEK-ISREIuc cells/well in 30 μL (plated the day before). Following 24 hours of incubation, activation of the ISRE elements was measured by assaying luciferase activity using 40 μL/well Steady Lite Plus substrate (Perkin Elmer) and measured with ViewLux ultraHTS microplate imager (Perkin Elmer). The stimulating activity of each compound on the HEK-ISREluc cells was reported as LEC value, defined as the compound concentration applied to the PBMCs resulting in a luciferase activity at least two fold above the standard deviation of the assay. The LEC in turn indicates the degree of ISRE activation on transfer of a defined amount of PBMC culture medium. Recombinant interferon α-2a (Roferon-A) was used as a standard control compound.

SMILES	Human TLR 7 (LEC) (human TLR7) [µM]	Human TLR 8 (LEC) (human TLR8) [µM]	minimal effective concentration [1] [µM]
CCC[C@H](Nc1nc(N)nc2ccsc12)C(=O)OC [Compound 10]	6.1	2.7	0.8
CCC[C@@H](CO)Nc1nc(N)nc2c(C)csc12 [Compound 13]	12	0.2	0.6
CCCC[C@@H](CCO)Nc1nc(N)nc2ccsc12 [Compound 8]	1.2	0.7	0.3
CCCC[C@@H](CO)Nc1nc(N)nc2cc(C(C)(C)C)sc12 [Compound 23]	2.7	2.6	
CCCC(C)Nc1nc(N)nc2cc(C)sc12 (stereo not drawn) [Compound 20]	>25	6.9	10.1
CCC[C@H](Nc1nc(N)nc2c(C)csc12)C(=O)OC [Compound 15]	>25	3.5	2.6
CCCC[C@@H](CO)Nc1nc(N)nc2cc(C)sc12 [Compound 22]	2.9	0.2	
CCCCCNc1nc(N)nc2c(C)csc12 [Compound 14]	6.8	1.9	3.2
CCCCNc1nc(N)nc2cc(C(C)(C)C)sc12 [Compound 3]	1.2	1.2	0.4
CCCC[C@@H](CO)Nc1nc(N)nc2c(C)csc12 [Compound 17]	3.7	0.3	0.4
CCCC[C@@H](CO)Nc1nc(N)nc2ccsc12 [Compound 4]	0.5	0.03	0.04
CCCC[C@@H](CCO)Nc1nc(N)nc2c(C)csc12 [Compound 19]	3.9	1.6	0.6
CCCCNc1nc(N)nc2ccsc12 [Compound 7]	1.1	0.7	0.3
CCCCNc1nc(N)nc2c(C)csc12 [Compound 2]	2.2	1.0	0.6
CCCC(C)Nc1nc(N)nc2ccsc12 (stereo not drawn) [Compound 9]	3.3	2.5	3.8
CCCCNc1nc(N)nc2cc(C)sc12 [Compound 1]	1.0	0.5	0.1
CCC[C@@H](CO)Nc1nc(N)nc2ccsc12 [Compound 5]	2.7	0.2	0.4
CCC[C@H](CO)Nc1nc(N)nc2ccsc12 [Compound 12]	>25	7.2	21
CCCC[C@H](CO)Nc1nc(N)nc2ccsc12 [Compound 6]	>25	0.5	0.6
CCCC[C@H](CO)Nc1nc(N)nc2cc(C)sc12 [Compound 21]	10.4	0.6	
CCCCCNc1nc(N)nc2ccsc12 [Compound 11]	2.1	3.9	1.2
CCCC[C@H](CO)Nc1nc(N)nc2c(C)csc12 [Compound 18]	>25	0.8	1.7
CCC[C@@H](CCO)Nc1nc(N)nc2c(C)csc12 [Compound 16]	5.2	1.6	0.7
